In assay [1] the test system is Caco-2. In words: Induction of apoptosis in human Caco-2 cells assessed as total apoptotic cells incubated at 0.11 uM for 72 hrs by annexin V-FITC based propidium iodide dual staining assay (reference value: 0.04 +/- 0.005%). In kind it is functional.
In assay [2] the test system is MCF7. In words: Induction of apoptosis in human MCF7 cells assessed as late apoptotic cells incubated at 0.11 uM for 72 hrs by annexin V-FITC based propidium iodide dual staining assay (reference value: 0.01%). In kind it is functional.
Assay [3] deals with HeLa. Briefly: Induction of apoptosis in human HeLa cells assessed as early apoptotic cells incubated at 0.11 uM for 72 hrs by annexin V-FITC based propidium iodide dual staining assay (reference value: 2.77%). In kind it is functional.
Assay [4] has as its system Caco-2. Briefly: Induction of apoptosis in human Caco-2 cells assessed as early apoptotic cells by measuring bright green patch incubated at 0.11 uM for 72 hrs by acridine orange-ethidium bromide dual staining based fluorescence microscopic analysis. In kind it is functional, cell-based.
In assay [5] the test system is dsDNA. In words: Induction of damage in dsDNA (unknown origin) assessed as DNA disruption by measuring fluorescence intensity at 100 uM incubated for 2.5 hrs by EvaGreen based fluorescence plate reader analysis. In kind it is nucleic-acid assay.
In assay [6] the test system is MCF7. In words: Induction of cell cycle arrest in human MCF7 cells assessed as accumulation of cells at sub-G0/G1 phase incubated for 24 hrs. The class given is functional, cell-based.
Assay [7] has as its system Caco-2. In words: Induction of oxidative stress in human Caco-2 cells assessed as cell death by measuring redox alteration fluorescence incubated at 0.11 uM for 72 hrs in presence of dihydro dichlorofluorescein diacetate by DCFH-DA based flow cytometric analysis relative to control. In kind it is functional.
Assay [8] relates to HepG2. In words: Anticancer activity against human HepG2 cells assessed as smaller cells incubated at 0.11 uM for 72 hrs by phase contrast inverted microscopic analysis. The class given is functional, cell-based.
Assay [9] relates to MCF7. In words: Anticancer activity against human MCF7 cells assessed as cell shrinkage incubated at 0.11 uM for 72 hrs by phase contrast inverted microscopic analysis. The class given is functional, cell-based.
The subject of assay [10] is Caco-2. In words: Anticancer activity against human Caco-2 cells assessed as round cells incubated at 0.11 uM for 72 hrs by phase contrast inverted microscopic analysis. The class given is functional, cell-based.
The test system of assay [11] is MCF7. Briefly: Induction of apoptosis in human MCF7 cells assessed as viable cells by measuring green uniform patch incubated at 0.017 uM for 72 hrs by acridine orange-ethidium bromide dual staining based fluorescence microscopic analysis. In kind it is functional, cell-based.
Assay [12] concerns Caco-2. In words: Induction of apoptosis in human Caco-2 cells assessed as early apoptotic cells incubated at 0.017 uM for 72 hrs by annexin V-FITC based propidium iodide dual staining assay (reference value: 0.07%). In kind it is functional.
Assay [13] concerns Caco-2. In words: Induction of apoptosis in human Caco-2 cells assessed as caspase3/7 activation at 0.017 uM using caspase-glo 3/7 as substrate relative to control. The class given is functional.
Assay [14] deals with Caco-2. Briefly: Induction of apoptosis in human Caco-2 cells assessed as viable cells by measuring green uniform patch incubated at 0.017 uM for 72 hrs by acridine orange-ethidium bromide dual staining based fluorescence microscopic analysis. In kind it is functional, cell-based.
Assay [15] relates to HepG2. In words: Induction of apoptosis in human HepG2 cells assessed as necrotic cells incubated at 0.017 uM for 72 hrs by annexin V-FITC based propidium iodide dual staining assay (reference value: 0.33%). In kind it is functional.
In assay [16] the test system is HeLa. In words: Anticancer activity against human HeLa cells assessed as round cells incubated at 0.098uM for 72 hrs by phase contrast inverted microscopic analysis. The class given is functional, cell-based.
Assay [17] concerns Caco-2. In words: Induction of apoptosis in human Caco-2 cells assessed as necrotic cells incubated at 0.098 uM for 72 hrs by annexin V-FITC based propidium iodide dual staining assay (reference value: 0.02 %). The class given is functional.
In assay [18] the test system is HepG2. Briefly: Induction of apoptosis in human HepG2 cells assessed as necrotic cells incubated at 0.098 uM for 72 hrs by annexin V-FITC based propidium iodide dual staining assay (reference value: 0.33%). In kind it is functional.
For assay [19], the system named is Caco-2. In words: Induction of apoptosis in human Caco-2 cells assessed as late apoptotic cells by measuring orange to red patch incubated at 0.098 uM for 72 hrs by acridine orange-ethidium bromide dual staining based fluorescence microscopic analysis. The class given is functional, cell-based.
For assay [20], the system named is HeLa. In words: Induction of apoptosis in human HeLa cells assessed as late apoptotic cells by measuring orange to red patch incubated at 0.098 uM for 72 hrs by acridine orange-ethidium bromide dual staining based fluorescence microscopic analysis. In kind it is functional, cell-based.
Assay [21] relates to HepG2. In words: Induction of apoptosis in human HepG2 cells assessed as late apoptotic cells incubated at 0.098 uM for 72 hrs by annexin V-FITC based propidium iodide dual staining assay (reference value: 0.66%). In kind it is functional.
Assay [22] concerns HeLa. In words: Anticancer activity against human HeLa cells assessed as losing contact with neighbouring cells incubated at 0.098uM for 72 hrs by phase contrast inverted microscopic analysis. The class given is functional, cell-based.
Assay [23] concerns HeLa. In words: Induction of apoptosis in human HeLa cells assessed as necrotic cells incubated at 0.098 uM for 72 hrs by annexin V-FITC based propidium iodide dual staining assay (reference value: 0%). The class given is functional.
The subject of assay [24] is HeLa. In words: Induction of apoptosis in human HeLa cells assessed as early apoptotic cells incubated at 0.098 uM for 72 hrs by annexin V-FITC based propidium iodide dual staining assay (reference value: 2.77%). The class given is functional.
The test system of assay [25] is MCF7. In words: Anticancer activity against human MCF7 cells assessed as smaller cells incubated at 0.098uM for 72 hrs by phase contrast inverted microscopic analysis. The class given is functional, cell-based.
In assay [26] the test system is HeLa. Briefly: Anticancer activity against human HeLa cells assessed as smaller cells incubated at 0.097uM for 72 hrs by phase contrast inverted microscopic analysis. The class given is functional, cell-based.
Assay [27] relates to HepG2. Briefly: Induction of oxidative stress in human HepG2 cells assessed as cell death by measuring redox alteration fluorescence incubated at 0.098 uM for 72 hrs in presence of dihydro dichlorofluorescein diacetate by DCFH-DA based flow cytometric analysis relative to control. In kind it is functional. (In general: In flow cytometry, cells or beads pass a laser one at a time.)

The test system of assay [28] is MCF7. Briefly: Induction of oxidative stress in human MCF7 cells assessed as cell death by measuring redox alteration fluorescence incubated at 0.11 uM for 72 hrs in presence of dihydro dichlorofluorescein diacetate by DCFH-DA based flow cytometric analysis relative to control. In kind it is functional.
Assay [29] deals with HeLa. Briefly: Induction of apoptosis in human HeLa cells assessed as early apoptotic cells by measuring bright green patch incubated at 0.097 uM for 72 hrs by acridine orange-ethidium bromide dual staining based fluorescence microscopic analysis. In kind it is functional, cell-based.

Active and inactive are the calls of the source. No cut-off for these calls is given here.

Regarding `C#CCN1C(=O)CN(/N=C/c2ccc([N+](=O)[O-])o2)C1=O`, the Activity in [1] came out at 45.81%; in [2], 34.7%; in assay [3], 9.44%; in [5] it was 27.2; in assay [7] it was 45.56%. The result in assay [4], in assay [6], in assay [8], in assay [9] and in assay [10] was Active.
`O=c1[nH]cc(F)c(=O)[nH]1` [FLUOROURACIL]: the outcome in [11] and in assay [14] was Active. For the same compound, the Activity in assay [12] was found to be 6.74%; in assay [13], 12%; in assay [15], 1.56%.
As for `O=C(CN1C(=O)CN(/N=C/c2ccc([N+](=O)[O-])o2)C1=O)c1ccc(Cl)cc1`, the outcome in assay [16], in [19], in [20], in [22] and in [25] was Active. Also, the Activity in assay [17] worked out at 3.37%; in assay [18] it was 3.85%; in assay [21], 34.89%; in [23], 1.16%; in assay [24], 6.1%.
In the case of `NS(=O)(=O)c1ccc(-n2cc(CN3C(=O)CN(/N=C/c4ccc([N+](=O)[O-])o4)C3=O)nn2)cc1`, the outcome in assay [26] and in assay [29] was Active. The Activity is 48.51% in assay [27] and 51.08% in [28].
